Source: patent US9005575B2, “Arg-Gly-Asp-conjugated alpha-melanocyte stimulating hormone hybrid peptide for use in diagnosing and treating melanoma, including metastatic melanoma and methods related to same” (STC.UNM, priority 2009, dated 2015)
Read-outs that look alike come from different tables or passages of the source. Positions of bridges follow the written chain, without caps; N, C: chain ends. Non-standard residues stand in square brackets, D forms with d. Residues, ends and D or L forms follow the SMILES beside them.

Experiment: Biodistribution in B16/F1 melanoma-bearing C57 mice
Format: in vivo
Conditions: female, C57, mouse, iv, total radioactivity; for tissue uptake dose at 0.5 h / tissue uptake at 0.5 h: 0.5 h post-injection; for tissue uptake dose at 4 h / tissue uptake at 4 h: 4 h post-injection; for tissue uptake dose at 24 h / tissue uptake at 24 h: 24 h post-injection
Description: All the animal studies were conducted in compliance with Institutional Animal Care and Use Committee approval. The pharmacokinetics of ^99mTc-RGD-Lys-(Arg^11)CCMSH was determined in B16/F1 melanoma-bearing C57 female mice (Harlan, Indianapolis, Ind.). C57 mice were subcutaneously inoculated on the right flank with 1×10^6 B16/F1 cells. The weight of tumors reached approximately 0.2 g 10 days post cell inoculation. Each melanoma-bearing mouse was injected with 0.037 MBq of ^99mTc-RGD-Lys-(Arg^11)CCMSH via the tail vein. Groups of 5 mice were sacrificed at 0.5, 2, 4 and 24 h post-injection, and tumors and organs of interest were harvested, weighed and counted. Blood values were taken as 6.5% of the whole-body weight. The MC1 receptor specificity of the tumor uptake was determined at 2 h post-injection by co-injecting ^99mTc-RGD-Lys-(Arg^11)CCMSH with 10 μg (6.1 nmol) of unlabeled NDP-MSH, a linear α-MSH peptide analogue with picomolar affinity for the MC1 receptors present on murine melanoma cells. The co-injection of 3.5 μg (6.1 nmol) of RGD peptide was performed to determine the αvβ3 integrin specificity of the tumor uptake 2 h post-injection. Statistical analysis was performed using the Student's t-test for unpaired data.
All the animal studies were conducted in compliance with Institutional Animal Care and Use Committee approval. The pharmacokinetics of ^99mTc-RGD-Arg-(Arg^11)CCMSH was determined in B16/F1 melanoma-bearing C57 female mice (Harlan, Indianapolis, Ind.). C57 mice were subcutaneously inoculated on the right flank with 1×10^6 B16/F1 cells. The weight of tumors reached approximately 0.2 g 10 days post cell inoculation. Each melanoma-bearing mouse was injected with 0.037 MBq of ^99mTc-RGD-Arg-(Arg^11)CCMSH via the tail vein. Groups of 5 mice were sacrificed at 0.5, 2, 4 and 24 h post-injection, and tumors and organs of interest were harvested, weighed and counted. Blood values were taken as 6.5% of the whole-body weight. The MC1 receptor specificity of the tumor uptake was determined at 2 h post-injection by co-injecting ^99mTc-RGD-Arg-(Arg^11)CCMSH with 10 μg (6.1 nmol) of unlabeled NDP-MSH. The co-injection of 3.5 μg (6.1 nmol) of RGD peptide was performed to determine the αvβ3 integrin specificity of the tumor uptake at 2 h post-injection.

[1] = bladder, 0.037 MBq, read-out: Bladder, Percentage Injected Dose
[2] = blood, 0.037 MBq, read-out: Blood, Percentage Injected Dose/gram
[3] = bone, 0.037 MBq, read-out: Bone, Percentage Injected Dose/gram
[4] = brain, 0.037 MBq, read-out: Brain, Percentage Injected Dose/gram
[5] = heart, 0.037 MBq, read-out: Heart, Percentage Injected Dose/gram
[6] = intestines, 0.037 MBq, read-out: Intestines, Percentage Injected Dose
[7] = kidneys, 0.037 MBq, read-out: Kidneys, Percentage Injected Dose/gram
[8] = liver, 0.037 MBq, read-out: Liver, Percentage Injected Dose/gram
[9] = lung, 0.037 MBq, read-out: Lung, Percentage Injected Dose/gram
[10] = muscle, 0.037 MBq, read-out: Muscle, Percentage Injected Dose/gram

dose excreted at 2 h (bladder (urine), 0.037 MBq, 2 h post-injection, read-out: Bladder, Percentage Injected Dose (cleared through the urinary system)): 62.3 ± 8.16% | tissue uptake dose at 0.5 h [1]: 46.9 ± 2.54 %ID | tissue uptake dose at 4 h [1]: 68.7 ± 2.06 %ID | tissue uptake dose at 24 h [1]: 78.2 ± 5.29 %ID | tissue uptake dose at 2 h (bladder, 2 h post-injection, NDP blockade (10 μg NDP-MSH co-injected), read-out: Bladder, Percentage Injected Dose): 75.9 ± 1.75 %ID | tissue uptake dose at 2 h (bladder, 2 h post-injection, RGD blockade (3.5 μg RGD co-injected), read-out: Bladder, Percentage Injected Dose): 75.1 ± 3.69 %ID | tissue uptake at 0.5 h [2]: 3.18 ± 0.51 %ID/g | tissue uptake at 2 h (blood, 0.037 MBq, 2 h post-injection, read-out: Blood, Percentage Injected Dose/gram): 0.96 ± 0.87 %ID/g | tissue uptake at 4 h [2]: 0.5 ± 0.27 %ID/g | tissue uptake at 24 h [2]: 0.11 ± 0.07 %ID/g | tissue uptake at 2 h (blood, 2 h post-injection, NDP blockade (10 μg NDP-MSH co-injected), read-out: Blood, Percentage Injected Dose/gram): 0.32 ± 0.34 %ID/g | tissue uptake at 2 h (blood, 2 h post-injection, RGD blockade (3.5 μg RGD co-injected), read-out: Blood, Percentage Injected Dose/gram): 0.53 ± 0.17 %ID/g | tissue uptake at 0.5 h [3]: 1.53 ± 0.75 %ID/g | tissue uptake at 2 h (bone, 0.037 MBq, 2 h post-injection, read-out: Bone, Percentage Injected Dose/gram): 1.05 ± 0.31 %ID/g | tissue uptake at 4 h [3]: 0.98 ± 0.67 %ID/g | tissue uptake at 24 h [3]: 0.71 ± 0.39 %ID/g | tissue uptake at 2 h (bone, 2 h post-injection, NDP blockade (10 μg NDP-MSH co-injected), read-out: Bone, Percentage Injected Dose/gram): 0.78 ± 0.65 %ID/g | tissue uptake at 2 h (bone, 2 h post-injection, RGD blockade (3.5 μg RGD co-injected), read-out: Bone, Percentage Injected Dose/gram): 0.37 ± 0.42 %ID/g | tissue uptake at 0.5 h [4]: 0.13 ± 0.03 %ID/g | tissue uptake at 2 h (brain, 0.037 MBq, 2 h post-injection, read-out: Brain, Percentage Injected Dose/gram): 0.12 ± 0.03 %ID/g | tissue uptake at 4 h [4]: 0.07 ± 0.04 %ID/g | tissue uptake at 24 h [4]: 0.06 ± 0.01 %ID/g | tissue uptake at 2 h (brain, 2 h post-injection, NDP blockade (10 μg NDP-MSH co-injected), read-out: Brain, Percentage Injected Dose/gram): 0.06 ± 0.02 %ID/g | tissue uptake at 2 h (brain, 2 h post-injection, RGD blockade (3.5 μg RGD co-injected), read-out: Brain, Percentage Injected Dose/gram): 0.03 ± 0.01 %ID/g | tissue uptake at 0.5 h [5]: 2.1 ± 0.41 %ID/g | tissue uptake at 2 h (heart, 0.037 MBq, 2 h post-injection, read-out: Heart, Percentage Injected Dose/gram): 0.85 ± 0.16 %ID/g | tissue uptake at 4 h [5]: 0.62 ± 0.31 %ID/g | tissue uptake at 24 h [5]: 0.39 ± 0.14 %ID/g | tissue uptake at 2 h (heart, with RGD peptide, 3.5 μg (6.1 nmol) co-injected, 2 h post-injection, RGD blockade (3.5 μg RGD co-injected), read-out: Heart, Percentage Injected Dose/gram): 0.37 ± 0.23 %ID/g | tissue uptake at 2 h (heart, with unlabeled NDP-MSH, 10 μg (6.1 nmol) co-injected, 2 h post-injection, NDP blockade (10 μg NDP-MSH co-injected), read-out: Heart, Percentage Injected Dose/gram): 0.47 ± 0.18 %ID/g | tissue uptake dose at 0.5 h [6]: 3.27 ± 0.13 %ID | tissue uptake dose at 2 h (intestines, 0.037 MBq, 2 h post-injection, read-out: Intestines, Percentage Injected Dose): 3.14 ± 1.2 %ID | tissue uptake dose at 4 h [6]: 2.95 ± 0.62 %ID | tissue uptake dose at 24 h [6]: 1.13 ± 0.18 %ID | tissue uptake dose at 2 h (intestines, 2 h post-injection, NDP blockade (10 μg NDP-MSH co-injected), read-out: Intestines, Percentage Injected Dose): 1.97 ± 0.17 %ID | tissue uptake dose at 2 h (intestines, 2 h post-injection, RGD blockade (3.5 μg RGD co-injected), read-out: Intestines, Percentage Injected Dose): 1.88 ± 0.16 %ID | tissue uptake at 0.5 h [7]: 69.4 ± 5.37 %ID/g | tissue uptake at 2 h (kidneys, 0.037 MBq, 2 h post-injection, read-out: Kidneys, Percentage Injected Dose/gram): 67.1 ± 8.79 %ID/g | tissue uptake at 4 h [7]: 68.3 ± 14.3 %ID/g | tissue uptake at 24 h [7]: 40.3 ± 10.8 %ID/g | tissue uptake at 2 h (kidneys, 2 h post-injection, NDP blockade (10 μg NDP-MSH co-injected), read-out: Kidneys, Percentage Injected Dose/gram): 59.5 ± 9.98 %ID/g | tissue uptake at 2 h (kidneys, 2 h post-injection, RGD blockade (3.5 μg RGD co-injected), read-out: Kidneys, Percentage Injected Dose/gram): 54.2 ± 15.1 %ID/g | tissue uptake at 0.5 h [8]: 4.02 ± 0.42 %ID/g | tissue uptake at 2 h (liver, 0.037 MBq, 2 h post-injection, read-out: Liver, Percentage Injected Dose/gram): 3.17 ± 1.43 %ID/g | tissue uptake at 4 h [8]: 2.91 ± 0.8 %ID/g | tissue uptake at 24 h [8]: 1.73 ± 0.33 %ID/g | tissue uptake at 2 h (liver, 2 h post-injection, NDP blockade (10 μg NDP-MSH co-injected), read-out: Liver, Percentage Injected Dose/gram): 2.89 ± 0.25 %ID/g | tissue uptake at 2 h (liver, 2 h post-injection, RGD blockade (3.5 μg RGD co-injected), read-out: Liver, Percentage Injected Dose/gram): 2.27 ± 0.23 %ID/g | tissue uptake at 0.5 h [9]: 5.31 ± 0.53 %ID/g | tissue uptake at 2 h (lung, 0.037 MBq, 2 h post-injection, read-out: Lung, Percentage Injected Dose/gram): 1.26 ± 0.32 %ID/g | tissue uptake at 4 h [9]: 1.07 ± 0.42 %ID/g | tissue uptake at 24 h [9]: 0.94 ± 0.45 %ID/g | tissue uptake at 2 h (lung, 2 h post-injection, NDP blockade (10 μg NDP-MSH co-injected), read-out: Lung, Percentage Injected Dose/gram): 1.31 ± 0.47 %ID/g | tissue uptake at 2 h (lung, 2 h post-injection, RGD blockade (3.5 μg RGD co-injected), read-out: Lung, Percentage Injected Dose/gram): 1.12 ± 0.1 %ID/g | tissue uptake at 0.5 h [10]: 0.38 ± 0.17 %ID/g | tissue uptake at 2 h (muscle, 0.037 MBq, 2 h post-injection, read-out: Muscle, Percentage Injected Dose/gram): 0.34 ± 0.29 %ID/g | tissue uptake at 4 h [10]: 0.13 ± 0.07 %ID/g | tissue uptake at 24 h [10]: 0.23 ± 0.19 %ID/g | tissue uptake at 2 h (muscle, 2 h post-injection, NDP blockade (10 μg NDP-MSH co-injected), read-out: Muscle, Percentage Injected Dose/gram): 0.21 ± 0.12 %ID/g | tissue uptake at 2 h (muscle, 2 h post-injection, RGD blockade (3.5 μg RGD co-injected), read-out: Muscle, Percentage Injected Dose/gram): 0.15 ± 0.06 %ID/g
SMILES: CC(C)[C@H](NC(=O)[C@@H]1CCCN1C(=O)[C@H](CCCNC(=N)N)NC(=O)[C@H](CS)NC(=O)[C@H](Cc1c[nH]c2ccccc12)NC(=O)[C@H](CCCNC(=N)N)NC(=O)[C@@H](Cc1ccccc1)NC(=O)[C@H](Cc1c[nH]cn1)NC(=O)[C@H](CCC(=O)O)NC(=O)[C@H](CS)NC(=O)[C@H](CS)NC(=O)[C@H](CCCCN)NC(=O)[C@@H]1CC(=O)N[C@@H](CCCNC(=N)N)C(=O)NCC(=O)N[C@@H](CC(=O)O)C(=O)N[C@H](Cc2ccc(O)cc2)C(=O)N1)C(N)=O [^99mTc-RGD-Lys-(Arg^11)CCMSH, metal not drawn] (RGD[dY]DKCCEH[dF]RWCRPV-NH2; lactam N-5)
